Test results reported in the CheMixHub drug solubility set.

Assay: xn = mol fraction of the nth substance listed, in the solute-free solvent

COc1cc2c(cc1OC)-c1cc3ccc(OC)c(OC)c3c[n+]1CC2.[Cl-] + O + CC(O)CO
solubility (g/100 g solution)
Conditions | 283.15 K | 288.15 K | 293.15 K | 298.15 K | 303.15 K | 308.15 K | 313.15 K | 318.15 K | 323.15 K | 328.15 K
x2 = 0.3194 | 0.0156 | 0.0224 | 0.0316 | 0.0473 | 0.0678 | 0.0953 | 0.132 | 0.184 | 0.251 | 0.339
x2 = 0.5135 | 0.0475 | 0.0664 | 0.0917 | 0.133 | 0.186 | 0.256 | 0.347 | 0.47 | 0.626 | 0.826
x2 = 0.6441 | 0.104 | 0.142 | 0.193 | 0.274 | 0.376 | 0.505 | 0.672 | 0.891 | 1.17 | 1.51
x2 = 0.7379 | 0.183 | 0.245 | 0.329 | 0.457 | 0.614 | 0.811 | 1.06 | 1.38 | 1.78 | 2.26
x2 = 0.8085 | 0.279 | 0.368 | 0.512 | 0.702 | 0.905 | 1.16 | 1.5 | 1.92 | 2.41 | 3
x2 = 0.8636 | 0.395 | 0.513 | 0.673 | 0.9 | 1.21 | 1.57 | 1.97 | 2.46 | 3.04 | 3.73
x2 = 0.9079 | 0.537 | 0.688 | 0.893 | 1.17 | 1.55 | 1.96 | 2.44 | 3 | 3.69 | 4.46
x2 = 0.9441 | 0.72 | 0.971 | 1.23 | 1.57 | 1.95 | 2.41 | 2.97 | 3.63 | 4.39 | 5.26
x2 = 0.9744 | 0.947 | 1.18 | 1.5 | 1.9 | 2.41 | 2.97 | 3.61 | 4.32 | 5.17 | 6.09

c1ccc2[nH]c(-c3cscn3)nc2c1 + CCCO + O
solubility (g/100 g solution)
Conditions | 283.15 K | 288.15 K | 293.15 K | 298.15 K | 303.15 K | 308.15 K | 313.15 K | 318.15 K | 323.15 K
x2 = 0.03225 | 0.00325 | 0.00407 | 0.00514 | 0.00634 | 0.00789 | 0.00974 | 0.0118 | 0.0143 | 0.0173
x2 = 0.06974 | 0.0139 | 0.017 | 0.021 | 0.0263 | 0.0319 | 0.0383 | 0.0458 | 0.0545 | 0.0646
x2 = 0.1139 | 0.0334 | 0.0402 | 0.0487 | 0.0585 | 0.0703 | 0.0828 | 0.0976 | 0.116 | 0.136
x2 = 0.1666 | 0.0767 | 0.09 | 0.106 | 0.122 | 0.142 | 0.162 | 0.188 | 0.212 | 0.242
x2 = 0.2307 | 0.141 | 0.163 | 0.188 | 0.216 | 0.249 | 0.284 | 0.321 | 0.365 | 0.413
x2 = 0.3103 | 0.21 | 0.243 | 0.282 | 0.322 | 0.367 | 0.415 | 0.47 | 0.525 | 0.592
x2 = 0.4117 | 0.291 | 0.331 | 0.38 | 0.435 | 0.497 | 0.563 | 0.633 | 0.707 | 0.794
x2 = 0.5454 | 0.37 | 0.423 | 0.483 | 0.545 | 0.62 | 0.699 | 0.785 | 0.879 | 0.983
x2 = 0.7297 | 0.425 | 0.482 | 0.553 | 0.623 | 0.708 | 0.79 | 0.883 | 0.986 | 1.1

Cc1[nH]c(=O)c(C#N)cc1-c1ccncc1 + CCO + O
solubility (g/100 g solution)
Conditions | 278.15 K | 283.15 K | 288.15 K | 293.15 K | 298.15 K | 303.15 K | 308.15 K | 313.15 K | 318.15 K | 323.15 K
x2 = 0.04165 | 0.000675 | 0.000813 | 0.000966 | 0.00114 | 0.00133 | 0.00153 | 0.00174 | 0.00198 | 0.00224 | 0.00254
x2 = 0.08908 | 0.000855 | 0.00103 | 0.00123 | 0.00144 | 0.00169 | 0.00194 | 0.00221 | 0.00251 | 0.00285 | 0.00321
x2 = 0.1436 | 0.00114 | 0.00138 | 0.00163 | 0.00192 | 0.00225 | 0.00258 | 0.00294 | 0.00333 | 0.00377 | 0.00426
x2 = 0.2068 | 0.00154 | 0.00186 | 0.00221 | 0.00259 | 0.00303 | 0.00348 | 0.00395 | 0.00447 | 0.00505 | 0.0057
x2 = 0.2812 | 0.00206 | 0.00239 | 0.00288 | 0.00338 | 0.0039 | 0.00453 | 0.00517 | 0.00586 | 0.00662 | 0.00754
x2 = 0.3698 | 0.00266 | 0.00322 | 0.00381 | 0.00446 | 0.00518 | 0.00596 | 0.00676 | 0.00763 | 0.0086 | 0.00968
x2 = 0.4772 | 0.00326 | 0.00385 | 0.00461 | 0.0054 | 0.00629 | 0.00717 | 0.00815 | 0.00921 | 0.0105 | 0.0119
x2 = 0.6101 | 0.00373 | 0.00451 | 0.0054 | 0.00637 | 0.00745 | 0.00844 | 0.00959 | 0.0108 | 0.0122 | 0.0138
x2 = 0.7788 | 0.00412 | 0.00503 | 0.00602 | 0.00705 | 0.00817 | 0.00928 | 0.0105 | 0.0119 | 0.0135 | 0.0153
